Data on 24 compounds can be found in patent publication US5869476A, “Pyrimidinone derivatives” (Boryung Pharmaceutical Co., Ltd., priority 1994, dated 1999).

pIC50: −log10 of the molar value.

The target in one test is T1, angiotensin II receptor (Oryctolagus cuniculus, UniProt P34976).
T1 construct: The aorta was cut into 3~4 mm to form ring samples; from tissue; host or cells: isolated aorta rings of New Zealand White rabbits
T1 sequence (P34976 1-359): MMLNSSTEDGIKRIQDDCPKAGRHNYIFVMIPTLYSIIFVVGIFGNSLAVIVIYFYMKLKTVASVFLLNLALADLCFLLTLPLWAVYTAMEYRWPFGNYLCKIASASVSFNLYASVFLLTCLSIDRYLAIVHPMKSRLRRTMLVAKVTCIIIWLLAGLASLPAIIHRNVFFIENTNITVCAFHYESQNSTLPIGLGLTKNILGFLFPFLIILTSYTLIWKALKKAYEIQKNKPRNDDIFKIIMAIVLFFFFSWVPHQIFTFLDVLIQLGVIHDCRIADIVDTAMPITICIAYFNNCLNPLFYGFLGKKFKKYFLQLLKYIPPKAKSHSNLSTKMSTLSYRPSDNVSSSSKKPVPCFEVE
The test can be described thus: inhibition of angiotensin II induced contraction of isolated rabbit aorta rings. The following applies: test compound incubated 20 minutes, 37° C., pH 7.4, read-out: IC50 (concentration being required to inhibit angiotensin II induced contraction by 50%). The test is classed as cell-based, New Zealand White rabbit. On the procedure:
The antagonistic activity of the representative compounds of the invention was evaluated using the methodology describe below.
From New Zealand White rabbits (male or female, 2~2.5 kg), aorta was isolated, and fat and connected tissue were removed therefrom. The aorta was cut into 3~4 mm to form ring samples. The aorta sample was suspended in 20 ml of organ bath (37° C.) containing modified Krebs-Henseleit solution saturated with 95% O2 /5% CO2 (pH 7.4).
The aorta preparation was exposed consecutively to 2 g of tensile strength for 90 minutes intermittently washing the sample with 30 minutes interval and then to 30 mM of KCl to observe contraction response. After washing more than three times, the aorta preparation was again allowed to contract three times for stabilization by adding Angiotensin II ([…]) thereto with 30 minutes interval. The third contraction response to Angiotensin II was considered as control.
10 minutes after the third contraction, the test compound was administered to the aorta preparation, which was incubated for 20 minutes.
Comparing angiotensin II contraction curve obtained from the above inhibition test with that of the control, IC50 (concentration being required to inhibit angiotensin II induced contraction by 50%) was determined for each test compound(Table 1).
In the case of `CCCCc1nc(=O)c(CC(=O)N2CCCC2)c(C)n1Cc1ccc(-c2ccccc2-c2nn[nH]n2)cc1` [Compound 41, 2-n-butyl-5-pyrrolidinocarbonylmethyl-6-methyl-1-[[2'-(1H-tetrazol-5-yl)biphenyl-4-yl]methyl]-pyrimidin-4-(1H) -one], the pIC50 was 6.92.

For `CCCCc1nc(C)c(CC(=O)N2CCC[C@H]2C(=O)OC)c(=O)n1Cc1ccc(-c2ccccc2-c2nn[nH]n2)cc1` [Compound 42, 2-n-butyl-5-[(S)-2'-methoxycarbonylpyrrolidinocarbonylmethyl]-6-methyl-3-[[2'-(1H-tetrazol-5-yl)biphenyl-4-yl]methyl]-pyrimidin-4-(3H)-one], the pIC50 is 8.69.

On to `CCCCc1nc(C)c(CC(=O)N2CCC[C@H]2C(N)=O)c(=O)n1Cc1ccc(-c2ccccc2-c2nn[nH]n2)cc1` [Compound 43, 2-n-butyl-5-[(S)-2'-aminocarbonylpyrrolidinocarbonylmethyl]-6-methyl-3-[[2'-(1H-tetrazol-5-yl)biphenyl-4-yl]methyl]-pyrimidin-4-(3H)-one], for which the pIC50 was 8.68.

Consider `CCCCc1nc(C)c(CC(=O)N2CC=CC2)c(=O)n1Cc1ccc(-c2ccccc2-c2nn[nH]n2)cc1` [Compound 44, 2-n-butyl-5-(3'-pyrrolinocarbonylmethyl)-6-methyl-3-[[2'-(1H-tetrazol-5-yl)biphenyl-4-yl]methyl]-pyrimidin-4-(3H)-one], for which the pIC50 was 8.69.

As for `CCCCc1nc(C)c(CC(=O)N2CCCCC2)c(=O)n1Cc1ccc(-c2ccccc2-c2nn[nH]n2)cc1` [Compound 45, 2-n-butyl-5-piperidinocarbonylmethyl-6-methyl-3-[[2'-(1H-tetrazol-5-yl)biphenyl-4-yl]methyl]-pyrimidin-4-(3H)-one], the pIC50 was 8.61.

Turning to `CCCCc1nc(=O)c(CC(=O)N2CCCCC2)c(C)n1Cc1ccc(-c2ccccc2-c2nn[nH]n2)cc1` [Compound 46, 2-n-butyl-5-piperidinocarbonylmethyl-6-methyl-1-[[2'-(1H-tetrazol-5-yl)biphenyl-4-yl]methyl]-pyrimidin-4-(1H)-one], the pIC50 is 6.39.

As for `CCCCc1nc(C)c(CC(=O)N2CCC(Cc3ccccc3)CC2)c(=O)n1Cc1ccc(-c2ccccc2-c2nn[nH]n2)cc1` [Compound 47, 2-n-butyl-5-(4'-benzylpiperidinocarbonylmethyl)-6-methyl-3-[[2'-(1H-tetrazol-5-yl)biphenyl-4-yl]methyl]-pyrimidin-4-(3H) -one], the pIC50 is 6.89.

Turning to `CCCCc1nc(C)c(CC(=O)N2CCCC(C)(C)C2)c(=O)n1Cc1ccc(-c2ccccc2-c2nn[nH]n2)cc1` [Compound 49, 2-n-butyl-5-(3',3'-dimethylpiperidinocarbonylmethyl)-6-methyl-3-[[2'-(1H-tetrazol-5-yl)biphenyl-4-yl]methyl]-pyrimidin-4-(3H)-one], the pIC50 was 8.05.

Consider `CCCCc1nc(C)c(CC(=O)N2[C@H](C)CCC[C@@H]2C)c(=O)n1Cc1ccc(-c2ccccc2-c2nn[nH]n2)cc1` [Compound 50, 2-n-butyl-5-(cis-2',6'-dimethylpiperidinocarbonylmethyl)-6-methyl-3-[[2'-(1H-tetrazol-5-yl)biphenyl-4-yl]methyl]-pyrimidin-4-(3H)-one], for which the pIC50 is 7.55.

With `CCCCc1nc(C)c(CC(=O)N2CCC(C(=O)OCC)CC2)c(=O)n1Cc1ccc(-c2ccccc2-c2nn[nH]n2)cc1` [Compound 51, 2-n-butyl-5-(4'-ethoxycarbonylpiperidinocarbonylmethyl)-6-methyl-3-[[2'-(1H-tetrazol-5-yl)biphenyl-4-yl]methyl]-pyrimidin-4-(3H)-one], the pIC50 was 8.22.

On to `CCCCc1nc(C)c(CC(=O)N2CCCC(C(=O)OCC)C2)c(=O)n1Cc1ccc(-c2ccccc2-c2nn[nH]n2)cc1` (stereo not drawn) [Compound 52, 2-n-butyl-5-(3'-ethoxycarbonylpiperidinocarbonylmethyl)-6-methyl-3-[[2'-(1H-tetrazol-5-yl)biphenyl-4-yl]methyl]-pyrimidin-4-(3H)-one], for which the pIC50 is 8.45.

With `CCCCc1nc(C)c(CC(=O)N2CCCCC2C(=O)OCC)c(=O)n1Cc1ccc(-c2ccccc2-c2nn[nH]n2)cc1` (stereo not drawn) [Compound 53, 2-n-butyl-5-(2'-ethoxycarbonylpiperidinocarbonylmethyl)-6-methyl-3-[[2'-(1H-tetrazol-5-yl)biphenyl-4-yl]methyl]-pyrimidin-4-(3H)-one], the pIC50 was 8.20.

Turning to `CCCCc1nc(C)c(CC(=O)N2CCC(C(N)=O)CC2)c(=O)n1Cc1ccc(-c2ccccc2-c2nn[nH]n2)cc1` [Compound 54, 2-n-butyl-5-(4'-aminocarbonylpiperidinocarbonylmethyl)-6-methyl-3-[[2'-(1H-tetrazol-5-yl)biphenyl-4-yl]methyl]-pyrimidin-4-(3H)-one], the pIC50 is 8.66.

Turning to `CCCCc1nc(C)c(CC(=O)N2CCCC(C(=O)N(CC)CC)C2)c(=O)n1Cc1ccc(-c2ccccc2-c2nn[nH]n2)cc1` (stereo not drawn) [Compound 55, 2-n-butyl-5-(3'-diethylaminocarbonylpiperidinocarbonylmethyl)-6-methyl-3-[[2'-(1H-tetrazol-5-yl)biphenyl-4-yl]methyl]-pyrimidin-4-(3H)-one], the pIC50 is 8.44.

As to `CCCCc1nc(C)c(CC(=O)N2CCCCCC2)c(=O)n1Cc1ccc(-c2ccccc2-c2nn[nH]n2)cc1` [Compound 56, 2-n-butyl-5-hexamethyleneiminocarbonylmethyl-6-methyl-3-[[2'-(1H-tetrazol-5-yl)biphenyl-4-yl]methyl]-pyrimidin-4-(3H)-one], the pIC50 is 8.48.

For the compound `CCCCc1nc(C)c(CC(=O)N2CCCCCCC2)c(=O)n1Cc1ccc(-c2ccccc2-c2nn[nH]n2)cc1` [Compound 57, 2-n-butyl-5-heptamethyleneiminocarbonylmethyl-6-methyl-3-[[2'-(1H-tetrazol-5-yl)biphenyl-4-yl]methyl]-pyrimidin-4-(3H)-one], the pIC50 was 8.44.

For `CCCCc1nc(C)c(CCC(=O)N2CCCC2)c(=O)n1Cc1ccc(-c2ccccc2-c2nn[nH]n2)cc1` [Compound 58, 2-n-butyl-5-(2'-pyrrolidinocarbonylethyl)-6-methyl-3-[[2'-(1H-tetrazol-5-yl)biphenyl-4-yl]methyl]-pyrimidin-4-(3H)-one], the pIC50 was 8.23.

For the compound `CCCCc1nc(C)c(CCC(=O)N2CCC[C@H]2C(=O)OC)c(=O)n1Cc1ccc(-c2ccccc2-c2nn[nH]n2)cc1` [Compound 59, 2-n-butyl-5-[2'-((S)-2"-methoxycarbonylpyrrolidino)-carbonylethyl]-6-methyl-3-[[2'-(1H-tetrazol-5-yl)biphenyl-4-yl]-methyl]-pyrimidin-4-(3H)-one], the pIC50 was 8.47.

Regarding `CCCCc1nc(C)c(CCC(=O)N2CCC[C@H]2C(N)=O)c(=O)n1Cc1ccc(-c2ccccc2-c2nn[nH]n2)cc1` [Compound 60, 2-n-butyl-5-[2'-((S)-2"-aminocarbonylpyrrolidino)carbonylethyl]-6-methyl-3-[[2'-(1H-tetrazol-5-yl)biphenyl-4-yl]methyl]-pyrimidin-4-(3H)-one], the pIC50 is 8.54.

On to `CCCCc1nc(C)c(CCC(=O)N2CC=CC2)c(=O)n1Cc1ccc(-c2ccccc2-c2nn[nH]n2)cc1` [Compound 61, 2-n-butyl-5-[2'-(3"-pyrrolino)carbonylethyl]-6-methyl-3-[[2'-(1H-tetrazol-5-yl)biphenyl-4-yl]methyl]-pyrimidin-4-(3H)-one], for which the pIC50 was 8.11.

For the compound `CCCCc1nc(C)c(CCC(=O)N2CCCCC2)c(=O)n1Cc1ccc(-c2ccccc2-c2nn[nH]n2)cc1` [Compound 62, 2-n-butyl-5-[2'-piperidinocarbonylethyl]-6-methyl-3-[[2'-(1H-tetrazol-5-yl)biphenyl-4-yl]methyl]-pyrimidin-4-(3H)-one], the pIC50 is 8.02.

Consider `CCCCc1nc(C)c(CCC(=O)N2CCC(Cc3ccccc3)CC2)c(=O)n1Cc1ccc(-c2ccccc2-c2nn[nH]n2)cc1` [Compound 63, 2-n-butyl-5-[2'-(4"-benzylpiperidino)carbonylethyl]-6-methyl-3-[[2'-(1H -tetrazol-5-yl)biphenyl-4-yl]methyl]-pyrimidin-4-(3H)-one], for which the pIC50 is 6.52.

Staying with this test, now noted: test compound incubated 20 minutes, value given in M, read-out: IC50 (concentration being required to inhibit angiotensin II induced contraction by 50%).
As to `CCCCc1nc(C)c(CC(=O)N2CCC(C)CC2)c(=O)n1Cc1ccc(-c2ccccc2-c2nn[nH]n2)cc1` [Compound 48, 2-n-butyl-5-(4'-methylpiperidinocarbonylmethyl)-6-methyl-3-[[2'-(1H-tetrazol-5-yl)biphenyl-4-yl]methyl]-pyrimidin-4-(3H)-one], the pIC50 was less than 5.00.

With `CCCCc1nc(C)c(CCC(=O)N2CCC(C)CC2)c(=O)n1Cc1ccc(-c2ccccc2-c2nn[nH]n2)cc1` [Compound 64, 2-n-butyl-5-[2'-(4"-methylpiperidino)carbonylethyl]-6-methyl-3-[[2'-(1H-tetrazol-5-yl)biphenyl-4-yl]methyl]-pyrimidin-4-(3H)-one], the pIC50 is less than 5.00.
